Reference: the NIST ThermoML archive (doi:10.1016/j.jct.2012.03.034)

Assay: xn = mol fraction of the nth substance listed
Details: 101 kPa, Liquid; for speed of sound: Linear variable-path acoustic interferometer; for mass density: Vibrating tube method; for viscosity: dual vibrating plate viscometer, AandD Co. Ltd Model SV-10

CC[NH+](CC)CC.O=S(=O)([O-])O [triethylammonium hydrogen sulfate] + CN1CCCC1=O
Details	mass density [kg/m3]	speed of sound [m/s]	viscosity [mPa·s]
298.15 K, x1 = 0.0115	1032.8	1575	3.39
298.15 K, x1 = 0.0234	1038.22	1585	4.63
298.15 K, x1 = 0.0632	1050.09	1610	4.46
298.15 K, x1 = 0.0927	1059.1	1627	4.81
298.15 K, x1 = 0.1387	1070.98	1658	4.99
298.15 K, x1 = 0.2259	1088.61	1710	8.89
298.15 K, x1 = 0.2631	1094.64	1734	19.46
298.15 K, x1 = 0.3261	1103.78	1770	40.98
298.15 K, x1 = 0.4478	1116.87	1823	96.22
298.15 K, x1 = 0.5947	1127.01	1871	163.18
298.15 K, x1 = 0.7717	1135	1893	229.32
298.15 K, x1 = 0.9017	1139.74	1885	245.82
298.15 K, x1 = 0.9497	1141.23	1879	242.86
298.15 K, x1 = 1	1142.89	1874	235
303.15 K, x1 = 0.0115	1029.6	1559	1.09
303.15 K, x1 = 0.0234	1033.96	1569	1.26
303.15 K, x1 = 0.0632	1046.49	1594	1.97
303.15 K, x1 = 0.0927	1054.51	1613	1.09
303.15 K, x1 = 0.1387	1066.39	1646	2.15
303.15 K, x1 = 0.2259	1084.19	1699	4.28
303.15 K, x1 = 0.2631	1090.49	1724	8.71
303.15 K, x1 = 0.3261	1099.54	1761	24.33
303.15 K, x1 = 0.4478	1112.6	1818	66.28
303.15 K, x1 = 0.5947	1123.51	1867	119.65
303.15 K, x1 = 0.7717	1132.09	1891	168.61
303.15 K, x1 = 0.9017	1137.34	1886	175.33
303.15 K, x1 = 0.9497	1139.47	1881	168.86
303.15 K, x1 = 1	1141.83	1871	153
308.15 K, x1 = 0.0115	1024.16	1541	1.08
308.15 K, x1 = 0.0234	1028.44	1552	0.73
308.15 K, x1 = 0.0632	1040.72	1574	–
308.15 K, x1 = 0.0927	1048.71	1595	–
308.15 K, x1 = 0.1387	1060.66	1628	–
308.15 K, x1 = 0.2259	1078.74	1682	–
308.15 K, x1 = 0.2631	1085.15	1707	7.75
308.15 K, x1 = 0.3261	1094.3	1746	23.71
308.15 K, x1 = 0.4478	1107.95	1806	66.53
308.15 K, x1 = 0.5947	1119.05	1862	116.6
308.15 K, x1 = 0.7717	1128.8	1892	161.59
308.15 K, x1 = 0.9017	1135.26	1887	165.14
308.15 K, x1 = 0.9497	1137.73	1880	156.95
308.15 K, x1 = 1	1140.72	1866	138
313.15 K, x1 = 0.0115	1019.77	1535	1.97
313.15 K, x1 = 0.0234	1023.04	1547	0.71
313.15 K, x1 = 0.0632	1034.66	1573	0.73
313.15 K, x1 = 0.0927	1043.09	1592	0.2
313.15 K, x1 = 0.1387	1055.07	1624	–
313.15 K, x1 = 0.2259	1072.51	1681	1.97
313.15 K, x1 = 0.2631	1079.29	1706	7.8
313.15 K, x1 = 0.3261	1088.65	1748	22.1
313.15 K, x1 = 0.4478	1102.48	1809	60.67
313.15 K, x1 = 0.5947	1114.67	1865	104.9
313.15 K, x1 = 0.7717	1125.81	1894	142.04
313.15 K, x1 = 0.9017	1133.51	1884	141.04
313.15 K, x1 = 0.9497	1136.49	1878	131.02
313.15 K, x1 = 1	1140.02	1859	108

CC(=O)[O-].CC[NH2+]CC [diethylammonium acetate] + CN1CCCC1=O
Details	mass density [kg/m3]	speed of sound [m/s]	viscosity [mPa·s]
298.15 K, x1 = 0.0234	1026.53	1570	1.83
298.15 K, x1 = 0.0473	1027.19	1570	1.82
298.15 K, x1 = 0.1188	1028.41	1576	2.26
298.15 K, x1 = 0.1668	1029.09	1575	2.67
298.15 K, x1 = 0.2393	1029.73	1563	3.57
298.15 K, x1 = 0.3616	1030.18	1527	5.62
298.15 K, x1 = 0.411	1030.19	1510	6.49
298.15 K, x1 = 0.4856	1029.95	1487	7.94
298.15 K, x1 = 0.6115	1028.88	1458	10.53
298.15 K, x1 = 0.7391	1027.18	1454	13.14
298.15 K, x1 = 0.8686	1024.96	1486	15.33
298.15 K, x1 = 0.9493	1023.14	1539	16.26
298.15 K, x1 = 0.9758	1022.3	1562	16.41
298.15 K, x1 = 1	1021.41	1608	16.36
303.15 K, x1 = 0.0234	1024.14	1555	1.6
303.15 K, x1 = 0.0473	1024.34	1557	1.66
303.15 K, x1 = 0.1188	1025.34	1563	2.03
303.15 K, x1 = 0.1668	1025.85	1565	2.34
303.15 K, x1 = 0.2393	1026.2	1556	3.09
303.15 K, x1 = 0.3616	1026.29	1523	4.89
303.15 K, x1 = 0.411	1026.22	1508	5.6
303.15 K, x1 = 0.4856	1025.78	1488	6.88
303.15 K, x1 = 0.6115	1024.47	1460	9.13
303.15 K, x1 = 0.7391	1022.47	1458	11.3
303.15 K, x1 = 0.8686	1019.99	1494	13.05
303.15 K, x1 = 0.9493	1018.04	1552	13.74
303.15 K, x1 = 0.9758	1017.29	1574	13.82
303.15 K, x1 = 1	1016.52	1612	13.64
308.15 K, x1 = 0.0234	1019.65	1531	1.48
308.15 K, x1 = 0.0473	1019.91	1536	1.67
308.15 K, x1 = 0.1188	1020.3	1546	1.87
308.15 K, x1 = 0.1668	1020.67	1548	2.15
308.15 K, x1 = 0.2393	1020.89	1542	2.84
308.15 K, x1 = 0.3616	1020.97	1514	4.45
308.15 K, x1 = 0.411	1020.77	1502	5.1
308.15 K, x1 = 0.4856	1020.41	1484	6.24
308.15 K, x1 = 0.6115	1019.23	1462	8.23
308.15 K, x1 = 0.7391	1017.4	1463	10.18
308.15 K, x1 = 0.8686	1015.03	1501	11.58
308.15 K, x1 = 0.9493	1013.14	1555	12.1
308.15 K, x1 = 0.9758	1012.47	1580	12.16
308.15 K, x1 = 1	1011.87	1616	11.83
313.15 K, x1 = 0.0234	1014.97	1527	1.37
313.15 K, x1 = 0.0473	1015.32	1532	1.44
313.15 K, x1 = 0.1188	1015.77	1544	1.75
313.15 K, x1 = 0.1668	1016.03	1547	1.98
313.15 K, x1 = 0.2393	1016.53	1543	2.61
313.15 K, x1 = 0.3616	1016.79	1520	4.05
313.15 K, x1 = 0.411	1016.77	1509	4.66
313.15 K, x1 = 0.4856	1016.52	1494	5.67
313.15 K, x1 = 0.6115	1015.76	1473	7.42
313.15 K, x1 = 0.7391	1014.43	1477	9.06
313.15 K, x1 = 0.8686	1012.59	1515	10.26
313.15 K, x1 = 0.9493	1010.98	1567	10.62
313.15 K, x1 = 0.9758	1010.43	1592	10.57
313.15 K, x1 = 1	1010.08	1617	10.02
